For one test, the target named is T1, HIV-I Protease (Human immunodeficiency virus type 1 group M subtype B, UniProt P04585).
T1 construct: HIV-I Protease: The enzyme is obtained from Bachem Bioscience Inc; purchased Bachem Bioscience Inc
Description: HIV protease inhibition (hydrolysis of undecapeptide substrate, HPLC readout). The format is biochemical. The conditions noted are these: read-out: 50% Inhibition Concentration (Averaged). The method, then: • DTT Buffer: 1.0 mM dithiothreitol (DTT) was prepared fresh daily in 0.1% polyethylene glycol (mw 8000) 80 mM NaOAc, 160 mM NaCl, 1.0 mM EDTA, and brought to pH 4.7 with HCl. • HIV-I Protease: The enzyme is obtained from Bachem Bioscience Inc. The undiluted enzyme is thawed from -80 °C and diluted 50-fold with DTT buffer. The solution is always kept at 0 °C on ice water and used in the experiment within 20 minutes after thawing. • Enzyme Substrate: Substrate III from Bachem Bioscience Inc. is the undecapeptide H-His-Lys-Ala-Arg-Val-Leu-p-Nitrophenylalanine-Glu-Ala-Norleucine-ser-NH2 (> 97 % purity). A 200. µM stock solution in DTT buffer is prepared and stored on ice. Substrate solution is prepared fresh daily. • Test Compound: 10 mM inhibitor (I) in dimethyl sulfoxide (DMSO) is diluted to 200 µM with DTT buffer. From the 200 µM stock solution is made a 10 µM stock solution with 2% DMSO in DTT buffer. The two inhibitor solutions are used to make final [I] = 100, 50, 20, 10, 5, 2, 1, 0.5 and 0 µM with 2% DMSO in DTT buffer in each reaction well (total inhibitor volume of 50 µl).
To each reaction well is added 20 µl of substrate (final concentration of 40 µM), 50 µl of inhibitor (at a concentration such that final dilution will produce the test concentration) and 20 µl of DTT buffer. The reaction plate (96 wells) is incubated at 37 °C for at least 5 minutes.
10 µl of the diluted protease is added to the reaction well while the reaction plate is shaking. Once shaken for 10 seconds, the plate is returned to the heating block at 37 °C. (Final reaction volume = 100 µl.)
The reaction is incubated for 5 minutes at 37 °C. The reaction is stopped by placing the reaction plate on the shaker and adding 20 µl of 10% trifluoroacetic acid (TFA) and shaking for 10 seconds. The amount of proteolysis is then determined by separation of noncleaved substrate and two cleaved products with reverse-phase HPLC, while measuring absorbance at 220 nm to determine the relative peak areas of the three components. The relative peak areas are used to calculate % conversion to product as a function of inhibitor concentration. The data is plotted as % Control (the ratio of % conversion in the presence and absence of inhibitor x 100) versus inhibitor concentration and fit with the equation Y= 100/1+(X/IC50)^A, where IC50 is the inhibitor concentration at 50% inhibition and A is the slope of the inhibition curve.

The subject of the next test is HIV-1iiib. Nature of the test: Anti-HIV-1 activity, acute infection of H9 cells. To be noted: Human immunodeficiency virus 1; H9 cell line infected with HIV-1iiib; reverse transcriptase assay at 4 and 7 days post infection; read-out: Concentration for 50% Protection. The format is cell-based. The method, then:
Using the general methods of Pauwels et al., (J. Virol. Methods, 16, 171-185, 1987) and Mann et al. (AIDS Research and Human Retroviruses, 253-255, 1989) anti-viral assays of acute HIV-1 infection were performed in the H9 cell line. Cultures were batch infected in 1 ml of RPM1 1640 media/10% fetal calf serum containing 10^7 cells and 10^5 infectious doses of HIV-1iiib for an effective multiplicity of infection of 0.01. After 2 hours of viral absorption, cells were washed once and plated in 96-well microtiter plates at a density of 10^4 cells per well. Test compounds were added to produce the desired concentration of drug and 0.2% DMSO in a final volume of 200 µl. Uninfected parallel cultures were maintained for XTT cytotoxicity assay at 7 days post infection. Cultures were tested for viral replication by reverse transcriptase assay at 4 and 7 days post infection.

Where [1] appears, read: 40 µM substrate, pH 4.7, 37 °C, 5 minutes.

SMILES strings stand for the structures. Like-named read-outs stand apart in the source and are kept apart here.

For the molecule `COc1ccccc1COc1ccc(-c2cc(O)c(SCCc3ccccc3)c(=O)o2)cc1` [Example 54, 4-Hydroxy-6-[4-[(2-methoxyphenyl)methoxy]phenyl]-3-[(2-phenylethyl)thio]-2H-pyran-2-one], the IC50 on HIV-I Protease (setting [1]) came to 450 nM.

With `O=c1oc(-c2cccc(OCCc3ccccc3)c2)cc(O)c1SCCc1ccccc1` [Example 30, 4-Hydroxy-6-[3-(2-phenylethoxy)phenyl]-3-[(2-phenyl-ethyl)thio]-2H-pyran-2-one], the IC50 at HIV-I Protease (setting [1]) came to 1970 nM.

In the case of `O=c1oc(-c2cccc(Cl)c2)cc(O)c1SCCc1ccccc1` [Example 6, 6-(3-Chlorophenyl)-4-hydroxy-3-[(2-phenylethyl)thio]-2H-pyran-2-one], on HIV-I Protease (setting [1]), the IC50 was 400 nM.

`Cc1cccc(-c2cc(O)c(SCc3ccccc3)c(=O)o2)c1` [Example 42, 4-Hydroxy-6-(3-methylphenyl)-3-[(phenylmethyl)thio]-2H-pyran-2-one]: the IC50 at HIV-I Protease (setting [1]) amounted to 860 nM.

In the case of `O=c1oc(-c2ccc3c(c2)OCO3)cc(O)c1SCc1ccccc1` [Example 50, 6-(1,3-Benzodioxol-5-yl)-4-hydroxy-3-[(phenylmethyl)thio]-2H-pyran-2-one], the IC50 on HIV-I Protease (setting [1]) was 600 nM.

For `O=c1oc(-c2ccccc2)cc(O)c1SCc1ccccc1` [Example 8], on HIV-I Protease (setting [1]), the IC50 came out at 1700 nM.

In the case of `O=c1oc(-c2ccc(OCc3ccccn3)cc2)cc(O)c1SCCc1ccccc1` [Example 59, 4-Hydroxy-3-[(2-phenylethyl)thio]-6-[4-(2-pyridinylmethoxy)phenyl]-2H-pyran-2-one], the IC50 at HIV-I Protease (setting [1]) was 770 nM.

For the molecule `Cc1cc(C)cc(-c2cc(O)c(SCc3ccccc3)c(=O)o2)c1` [Example 56, 6-(3,5-Dimethylphenyl)-4-hydroxy-3-[(phenylmethyl)-thio]-2H-pyran-2-one], the IC50 at HIV-I Protease (setting [1]) worked out at 130 nM. Also, the EC50 with HIV-1iiib came out at 29000 nM.

Turning to `COc1cccc(-c2cc(O)c(SCc3ccccc3)c(=O)o2)c1` [Example 4, 4-Hydroxy-6-(3-methoxyphenyl)-3-[(phenylmethyl)thio]-2H-pyran-2-one], the IC50 at HIV-I Protease (setting [1]) came out at 900 nM.

In the case of `O=c1oc(-c2ccccc2)cc(O)c1C(CC1CC1)SCc1ccccc1` (racemic) [Example 119, 3-[2-Cyclopropyl-1-[(phenylmethyl)thio]ethyl]-4-hydroxy-6-phenyl-2H-pyran-2-one], the IC50 on HIV-I Protease (setting [1]) came out at 60 nM.

`O=c1oc(-c2ccc(OCc3cccnc3)cc2)cc(O)c1SCCc1ccccc1` [Example 64, 4-Hydroxy-3-[(2-phenylethyl)thio]-6-[4-(3-pyridinylmethoxy)phenyl]-2H-pyran-2-one]: on HIV-I Protease (setting [1]), the IC50 turned out to be 1500 nM. Also, the EC50 with HIV-1iiib was 3000 nM.

For the molecule `CCOC(=O)COc1ccc(-c2cc(O)c(SCCc3ccccc3)c(=O)o2)cc1` [Example 60, 4-[4-Hydroxy-2-oxo-3-[(2-phenylethyl)thio]-2H-pyran-6-yl]phenoxy acetic acid ethyl eater], on HIV-I Protease (setting [1]), the IC50 came to 610 nM.

Consider `CC(C)CC(SC1CCCCC1)c1c(O)cc(-c2ccc3c(c2)OCCO3)oc1=O` (racemic) [Example 115, 3-[1-(Cyclohexylthio)-3-methylbutyl]-6-(2,3-dihydro-1,4-benzodioxin-6-yl)4-hydroxy-2H-pyran-2-one], for which the IC50 on HIV-I Protease (setting [1]) is 200 nM.

As to `CC(C)CC(Sc1ccccc1)c1c(O)cc(-c2ccccc2)oc1=O` (racemic) [Example 73, 4-Hydroxy-3-[3-methyl-1-(phenylthio)butyl]-6-phenyl-2H-pyran-2-one], the IC50 on HIV-I Protease (setting [1]) is 410 nM. In the test on HIV-1iiib, the EC50 was 15000 nM.

With `COc1ccc(-c2cc(O)c(SCc3ccccc3)c(=O)o2)cc1C` [Example 46, 4-Hydroxy-6-(4-methoxy-3-methylphenyl)-3-[(phenylmethyl)thio]-2H-pyran-2-one], the IC50 at HIV-I Protease (setting [1]) worked out at 700 nM.

As to `O=c1oc(-c2ccc(Oc3ccccc3)cc2)cc(O)c1SCCc1ccccc1` [Example 57, 4-Hydroxy-6-(4-phenoxyphenyl)-3-[(2-phenylethyl)thio]-2H-pyran-2-one], the IC50 on HIV-I Protease (setting [1]) amounted to 1900 nM.

In the case of `O=c1oc(-c2cccc(OCc3ccccc3)c2)cc(O)c1SCCc1ccccc1` [Example 39, 4-Hydroxy-3-[(2-phenylethyl)thio]-6-[3-(phenylmethoxy)phenyl]-2H-pyran-2-one], the IC50 at HIV-I Protease (setting [1]) is 750 nM.

Regarding `Cc1cc(C)cc(-c2cc(O)c(Sc3ccccc3C(C)C)c(=O)o2)c1` [Example 154, 6-(3,5-Dimethylphenyl)-4-hydroxy-3-[(2-isopropylphenyl)-thio]-2H-pyran-2-one], in the test with HIV-1iiib, the EC50 was 31000 nM.

For the molecule `O=c1oc(-c2ccccc2)cc(O)c1C(Sc1ccccc1)c1ccccc1` (racemic) [Example 31, 4-Hydroxy-6-phenyl-3-[phenyl(phenylthio)methyl]-2H-pyran-2-one], the IC50 on HIV-I Protease (setting [1]) was 800 nM.

In the case of `Cc1cc(C)cc(-c2cc(O)c(Sc3ccccc3)c(=O)o2)c1` [Example 148, 6-(3,5-Dimethylphenyl)-4-hydroxy-3-(phenylthio)-2H-pyran-2-one], on HIV-I Protease (setting [1]), the IC50 worked out at 630 nM.

On to `O=c1oc(-c2ccccc2)cc(O)c1SC/C=C/c1ccccc1` [Example 25, 4-Hydroxy-6-phenyl-3-[3-(phenyl-2-propenyl)thio]-2H-pyran-2-one, (E)-], for which, on HIV-I Protease (setting [1]), the IC50 was 1900 nM.

For the molecule `CC(C)CC(SC1CCCC1)c1c(O)cc(-c2ccccc2)oc1=O` (racemic) [Example 96, 3-[1-(Cyclopentylthio)-3-methylbutyl]-4-hydroxy-6-phenyl-2H-pyran-2-one], the IC50 at HIV-I Protease (setting [1]) came to 70 nM.

In the case of `O=c1oc(-c2ccc(Cl)c(Cl)c2)cc(O)c1SCc1ccccc1` [Example 3, 6-(3,4-Dichlorophenyl)-4-hydroxy-3-[(phenylmethyl)thio]-2H-pyran-2-one], the IC50 on HIV-I Protease (setting [1]) came out at 1000 nM.

For the molecule `O=c1oc(-c2cccc(O)c2)cc(O)c1SCc1ccccc1` [Example 23, 4-Hydroxy-6-(3-hydroxyphenyl)-3-[(phenylmethyl)thio]-2H-pyran-2-one], on HIV-I Protease (setting [1]), the IC50 came out at 1200 nM.

For `O=C(O)COc1ccc(-c2cc(O)c(SCCc3ccccc3)c(=O)o2)cc1` [Example 63, 4-[4-Hydroxy-2-oxo-3-[(2-phenylethyl)thio]-2H-pyran-6-yl]phenoxyacetic acid], the IC50 at HIV-I Protease (setting [1]) was determined as 140 nM.

Take `O=c1oc(-c2ccc(O)cc2)cc(O)c1SCc1ccccc1` [Example 15, 4-Hydroxy-6-(4-hydroxyphenyl)-3-[(phenylmethyl)thio]-2H-pyran-2-one]: the IC50 on HIV-I Protease (setting [1]) came out at 690 nM.

With `O=c1oc(-c2ccccc2)cc(O)c1SCCOc1ccccc1` [Example 20, 4-Hydroxy-3-[(2-phenoxyethyl)thio]-6-phenyl-2H-pyran-2-one], on HIV-I Protease (setting [1]), the IC50 is 1700 nM.

For the molecule `Cc1cc(-c2cc(O)c(SCc3ccccc3)c(=O)o2)cc(C)c1O` [Example 99, 4-Hydroxy-6-(4-hydroxy-3,5-dimethylphenyl)-3-[(phenylmethyl)thio]-2H-pyran-2-one], the IC50 at HIV-I Protease (setting [1]) amounted to 240 nM.

Regarding `O=c1oc(-c2cccc(Cl)c2)cc(O)c1SCc1ccccc1` [Example 1, 6-(3-Chlorophenyl)-4-hydroxy-3-[(phenylmethyl)thio]-2H-pyran-2-one], the IC50 on HIV-I Protease (setting [1]) worked out at 470 nM.

For `O=c1oc(-c2ccc(O)cc2)cc(O)c1SCCc1ccccc1` [Example 24, 4-Hydroxy-6-(4-hydroxyphenyl)-3-[(phenylethyl)thio]-2H-pyran-2-one], at HIV-I Protease (setting [1]), the IC50 amounted to 500 nM.

For `O=c1oc(-c2cccc(-c3ccccc3)c2)cc(O)c1Sc1ccc2ccccc2c1` [Example 168, 6-(1,1'-Biphenyl-3-yl)-4-hydroxy-3-[(naphthalen-2-yl)thio]-2H-pyran-2-one], the IC50 on HIV-I Protease (setting [1]) was determined as 410 nM.

As to `O=c1oc(-c2ccccc2)cc(O)c1C(CC1CC1)SC1CCCC1` (racemic) [Example 149, 3-[1-[Cyclopentylthio]-2-cyclopropylethyl]-4-hydroxy-6-phenyl-2H-pyran-2-one], at HIV-I Protease, the IC50 came to 55 nM.

The values above are taken from patent EP0729465B1, “PYRONE DERIVATIVES AS PROTEASE INHIBITORS AND ANTIVIRAL AGENTS” (PARKE, DAVIS & COMPANY, priority 1993, dated 1995).
